Test results taken from patent publication US11066447B2, “Aureobasidium derivatives and methods of synthesis” (AureoGen Biosciences, Inc., priority 2016, dated 2021).
Values after ≈ are worked out from the molar mass of the structure shown. Like-named read-outs stand apart in the source and are kept apart here. Numbered stars: 1 amine (or outer) side, 2 acyl side, 3 side chain; on linkers, the order of the positions; unused ones are H or OH. Square brackets hold non-standard residues; d marks the D form. Peptide text beside a SMILES is read from it. X15 = CN([C@@H](Cc1cccc(-c2ccc(N3CCOCC3)nc2)c1)C(=O)[*:2])[*:1]; X28 = CN([C@@H](Cc1cccc(-c2ccc(C(F)(F)F)cc2)c1)C(=O)[*:2])[*:1]; X20 = CN([C@@H](Cc1cccc(-c2cnn(C3CCCC3)c2)c1)C(=O)[*:2])[*:1]; X34 = CC[C@@H](C)[C@@H](O[*:1])C(=O)[*:2]; Hmp(2R,3S) = CC[C@H](C)[C@@H](O)C(=O)O; NMeVal(β-OH) = CN[C@H](C(=O)O)C(C)(C)O; NMeF = CN[C@@H](Cc1ccccc1)C(=O)O; aIle = CC[C@@H](C)[C@H](N)C(=O)O; NMeV = CN[C@H](C(=O)O)C(C)C

How the values were obtained:
[1] = test system: C. albicans MMX 2000 ATCC 10231; experiment: MIC assay (CLSI microdilution); type: cell-based
Experimental: (§1) Aureobasidin and test compounds (i.e., AbA derivatives of the present invention) were received from Kalexsyn, Inc. (Kalamazoo, Mich.) as powder and were stored at 4° C. until the day of assay. […] amphotericin was obtained from Sigma Aldrich and stored under like conditions. […] Ethanol (95%) was used as a solvent and diluent for all AbA compounds. Amphotericin B was tested from 0.06-64 μg/mL. Amphotericin B (Sigma Aldrich; St. Louis, Mo.; Cat No. A9528-100MG, Lot No. 120M4087) was dissolved and diluted with dimethylsulfoxide (DMSO; Sigma Aldrich; St. Louis, Mo.; Cat No. 472301 Lot No. SHBD2072V).
(§2) The solvents were added to the test agents and the stock solutions stood for approximately 1 hr at room temperature prior to use to auto sterilize. Stock solutions were prepared at 40× the desired top concentration in the test plate.
(§3) All of the test isolates were originally received from either the American Type Culture Collection (ATCC), clinical labs, or directly from Aureogen Biosciences. Organisms stored by Micromyx were cultured on agar medium appropriate to each organism. Colonies were picked by swab from the isolation plates and put into suspension in appropriate broth containing cryoprotectant. The suspensions were aliquoted into cryogenic vials and maintained at −80° C.
(§4) Prior to testing, Candida isolates were streaked from the frozen vials on Sabouraud dextrose agar. The yeast isolates were incubated for 48 hours at 35° C. before use. The fungal isolates were obtained from enumerated fungal stocks previously prepared at Micromyx and stored in phosphate buffered saline at 4° C.
(§5) Test Media. The medium employed for the MIC assay was RPMI-1640 medium from HyClone Laboratories (Logan, Utah; Lot No. AYB60287A). The medium was prepared according to Clinical and Laboratory Standards Institute (CLSI) guidelines (1, 2), and modified to include 0.002% Tween-80. Candida parapsilosis ATCC 22019 (MMX 2323) and Aspergillus fumigatus ATCC MYA-3626 (MMX 5280) were also tested without Tween-80 to provide data for the quality control of amphotericin B in accordance with CLSI (3) and to assess the effect of Tween-80 on the activity of the test agents.
(§6) Test Procedure. The MIC assay method followed the procedure described by CLSI (1, 2) and employed automated liquid handlers to conduct serial dilutions and liquid transfers. Automated liquid handlers included the Multidrop 384 (Labsystems, Helsinki, Finland), Biomek 2000 and Biomek FX (Beckman Coulter, Fullerton Calif.). The wells in columns 2-12 in standard 96-well microdilution plates (Costar 3795) were filled with 150 μl of the appropriate diluent (95% EtOH for investigational compounds, 100% DMSO for amphotericin B). These assay plates would become the ‘mother plates’ from which the assay ‘daughter plates’ would be prepared. The drugs (300 μL at 40× the desired top concentration in the test plates) were dispensed into the appropriate well in Column 1 of the mother plates. The Biomek 2000 was used to make two-fold serial dilutions through Column 11 in the “mother plate”. The wells of Column 12 contained no drug and served as the organism growth control wells.
(§7) The daughter plates were loaded with 185 μL per well on the Multidrop 384 with RPMI plus 0.002% Tween-80 or RPMI containing no Tween-80 for the testing of the two QC isolates. The daughter plates were prepared on the Biomek FX instrument which transferred 5 μL of drug solution from each well of a mother plate to each corresponding well of each daughter plate in a single step.
(§8) A standardized inoculum of each organism was prepared per CLSI methods (1, 2). For the Candida isolates, colonies were picked from the streak plate and a suspension was prepared in RPMI to equal a 0.5 McFarland standard. This suspension was diluted 1:100 in RPMI resulting in a final concentration of approximately 0.5-2.5×10^3 CFU/mL. […]

[2] = test system: C. neoformans MMX 0634 ATCC 90112; experiment: MIC assay (CLSI microdilution); type: cell-based
Experimental: as §1, §2, §3, §4, §5, §6, §7, §8

[3] = test system: C. parapsilosis MMX 2323 ATCC 22019; experiment: MIC assay (CLSI microdilution); type: cell-based, Candida parapsilosis
Experimental: as §1, §2, §3, §4, §5, §6, §7, §8

A. flavus MMX 5948 = experiment: MIC/MEC assay (CLSI microdilution); type: cell-based
Experimental: as §1, §2, §3, §4, §5, §6, §7, §8

A. fumigatus MMX 5944 = experiment: MIC/MEC assay (CLSI microdilution); type: cell-based
Experimental: as §1, §2, §3, §4, §5, §6, §7, §8

[4] = test system: A. fumigatus MMX 6781 ATCC MYA-4609; experiment: MIC/MEC assay (CLSI microdilution); type: cell-based
Experimental: as §1, §2, §3, §4, §5, §6, §7, §8

[5] = test system: A. fumigatus MMX 6782 ATCC 13073; experiment: MIC/MEC assay (CLSI microdilution); type: cell-based; conditions: for minimal effective concentration: RPMI plus 0.002% Tween-80, read-out: MEC
Experimental: as §1, §2, §3, §4, §5, §6, §7, §8

[6] = test system: A. fumigatus from Aureogen; experiment: MIC/MEC assay (CLSI microdilution); type: cell-based; conditions: Aspergillus fumigatus, 48 h; for minimal effective concentration: RPMI plus 0.002% Tween-80; for MIC: RPMI plus 0.002% Tween-80, read-out: MIC
Experimental: as §1, §2, §3, §4, §5, §6, §7, §8

[7] = test system: A. niger MMX 0624 ATCC 16888; experiment: MIC/MEC assay (CLSI microdilution); type: cell-based; conditions: for minimal effective concentration: RPMI plus 0.002% Tween-80, read-out: MEC
Experimental: as §1, §2, §3, §4, §5, §6, §7, §8

[8] = test system: A. fumigatus MMX 5280 ATCC MYA-3626; experiment: MIC/MEC assay (CLSI microdilution); type: cell-based, Aspergillus fumigatus
Experimental: as §1, §2, §3, §4, §5, §6, §7, §8

[9] = Candida albicans, ATCC10231, RPMI plus 0.002% Tween-80, read-out: MIC
[10] = Cryptococcus neoformans, ATCC90112, RPMI plus 0.002% Tween-80, read-out: MIC
[11] = ATCC22019, RPMI plus 0.002% Tween-80, read-out: MIC
[12] = ATCC22019, Without Tween-80, read-out: MIC
[13] = Aspergillus flavus, MMX5948, 48 h, RPMI plus 0.002% Tween-80
[14] = Aspergillus flavus, MMX5948, 48 h, RPMI plus 0.002% Tween-80, read-out: MIC
[15] = Aspergillus fumigatus, MMX5944, 48 h, RPMI plus 0.002% Tween-80
[16] = Aspergillus fumigatus, MMX5944, 48 h, RPMI plus 0.002% Tween-80, read-out: MIC
[17] = Aspergillus fumigatus, 48 h, RPMI plus 0.002% Tween-80, read-out: MIC
[18] = Aspergillus fumigatus, RPMI plus 0.002% Tween-80, 48 hr
[19] = Aspergillus fumigatus, ATCC13073, 48 h
[20] = Aspergillus fumigatus, ATCC13073, 48 h, RPMI plus 0.002% Tween-80, read-out: MIC
[21] = Aspergillus niger, ATCC16888, 48 h
[22] = Aspergillus niger, ATCC16888, 48 h, RPMI plus 0.002% Tween-80, read-out: MIC
[23] = Aspergillus fumigatus, 48 h, RPMI plus 0.002% Tween-80, read-out: MEC
[24] = Aspergillus fumigatus, 48 h, Without Tween-80, read-out: MEC
[25] = Aspergillus fumigatus, 48 h, Without Tween-80, read-out: MIC
[26] = RPMI plus 0.002% Tween-80, 48 hr

| Structure (SMILES) | MIC [1, 9] [µg/mL] | MIC [2, 10] [µg/mL] | MIC [3, 11] [µg/mL] | MIC [3, 12] [µg/mL] | minimal effective concentration (A. flavus MMX 5948; [13]) [µg/mL] | MIC (A. flavus MMX 5948; [14]) [µg/mL] | minimal effective concentration (A. fumigatus MMX 5944; [15]) [µg/mL] | MIC (A. fumigatus MMX 5944; [16]) [µg/mL] | MIC [4, 17] [µg/mL] | minimal effective concentration [4, 18] [µg/mL] | minimal effective concentration [5, 19] [µg/mL] | MIC [5, 20] [µg/mL] | minimal effective concentration [6] [µg/mL] | MIC [6] [µg/mL] | minimal effective concentration [7, 21] [µg/mL] | MIC [7, 22] [µg/mL] | minimal effective concentration [8, 23] [µg/mL] | MIC [8, 17] [µg/mL] | minimal effective concentration [8, 24] [µg/mL] | MIC [8, 25] [µg/mL] | also measured |
| --- | --- | --- | --- | --- | --- | --- | --- | --- | --- | --- | --- | --- | --- | --- | --- | --- | --- | --- | --- | --- | --- |
| CC[C@H](C)[C@@H]1NC(=O)[C@@H]2CCCN2C(=O)[C@H](Cc2cccc(-c3cnn(C4CCCC4)c3)c2)N(C)C(=O)[C@H](Cc2ccccc2)NC(=O)[C@H](C(C)C)N(C)C(=O)[C@@H]([C@@H](C)CC)OC(=O)[C@H](C(C)(C)O)N(C)C(=O)[C@H](CC(C)C)NC(=O)[C@H](C(C)C)N(C)C1=O [Compound 12] (cyclo(F[X20]PI[NMeV]L[NMeVal(β-OH)][Hmp(2R,3S)][NMeV])) | 0.03 | 0.5 | 0.12 | 1 (≈ 0.809 µM) | > 64 | > 64 | > 64 | > 64 | > 64 | > 64 | > 64 | > 64 | > 64 | > 64 | > 64 | > 64 | > 64 | > 64 | > 64 | > 64 | – |
| CC[C@H](C)[C@@H]1NC(=O)[C@@H]2CCCN2C(=O)[C@H](Cc2cccc(-c3ccc(N4CCOCC4)nc3)c2)N(C)C(=O)[C@H](Cc2ccccc2)NC(=O)[C@H](C(C)C)N(C)C(=O)[C@@H]([C@@H](C)CC)OC(=O)[C@H](C(C)(C)O)N(C)C(=O)[C@H](CC(C)C)NC(=O)[C@H](C(C)C)N(C)C1=O [Compound 24] (cyclo(F[X15]PI[NMeV]L[NMeVal(β-OH)][Hmp(2R,3S)][NMeV])) | 0.03 | 0.5 | 0.12 | 1 (≈ 0.791 µM) | 0.25 | 0.5 | > 64 | > 64 | > 64 | > 64 | > 64 | > 64 | > 64 | > 64 | 0.25 | 0.25 | > 64 | > 64 | > 64 | > 64 | – |
| CC[C@@H](C)[C@@H]1NC(=O)[C@@H]2CCCN2C(=O)[C@H](Cc2ccccc2)N(C)C(=O)[C@H](Cc2ccccc2)NC(=O)[C@H](C(C)C)N(C)C(=O)[C@@H]([C@H](C)CC)OC(=O)[C@H](C(C)(C)O)N(C)C(=O)[C@H](CC(C)C)NC(=O)[C@H](C(C)C)N(C)C1=O [Aureobasidin A, reference compound] (cyclo(F[NMeF]P[aIle][NMeV]L[NMeVal(β-OH)][X34][NMeV])) | – | – | – | – | – | – | – | – | – | – | – | – | – | – | – | – | – | – | – | – | MIC ([1]; RPMI plus 0.002% Tween-80): ≤0.002 µg/mL; MIC ([2]; RPMI plus 0.002% Tween-80): 0.06 µg/mL; MIC ([3]; RPMI plus 0.002% Tween-80): 0.008 µg/mL; MIC ([3]; Without Tween-80): 0.25 µg/mL (≈ 0.227 µM); MEC (A. flavus MMX 5948; [26]): >64/>64 μg/mL; MIC (A. flavus MMX 5948; [26]): >64/>64 μg/mL; MEC (A. fumigatus MMX 5944; [26]): 2 µg/mL; MIC (A. fumigatus MMX 5944; [26]): > 64 µg/mL; MEC [4, 26]: >64/>64 μg/mL; MIC [4, 26]: >64/>64 μg/mL; MEC [5, 26]: 2 µg/mL; MIC [5, 26]: > 64 µg/mL; MEC [7, 26]: >64/>64 μg/mL; MIC [7, 26]: >64/>64 μg/mL; MEC [8, 26]: >64/>64 μg/mL; MIC [8, 26]: >64/>64 μg/mL; MEC ([8]; Without Tween-80, 48 hr): >64/>64 μg/mL; MIC ([8]; Without Tween-80, 48 hr): >64/>64 μg/mL |
| CC[C@H](C)[C@@H]1NC(=O)[C@@H]2CCCN2C(=O)[C@H](Cc2cccc(-c3ccc(C(F)(F)F)cc3)c2)N(C)C(=O)[C@H](Cc2ccccc2)NC(=O)[C@H](C(C)C)N(C)C(=O)[C@@H]([C@@H](C)CC)OC(=O)[C@H](C(C)(C)O)N(C)C(=O)[C@H](CC(C)C)NC(=O)[C@H](C(C)C)N(C)C1=O [Compound 3] (cyclo(F[X28]PI[NMeV]L[NMeVal(β-OH)][Hmp(2R,3S)][NMeV])) | 0.12 | 0.12 | 0.5 | 2 (≈ 1.61 µM) | > 64 | > 64 | > 64 | > 64 | > 64 | > 64 | > 64 | > 64 | – | – | – | – | > 64 | > 64 | > 64 | > 64 | MEC [7, 26]: 1/1 μg/mL; MIC [7, 26]: 1/1 μg/mL |
